Experimental data: the supplement of paper PMC13380429

Assays:
[1] = tested on: A549-ACE2 infected with SARS-CoV-2; assay: cell count relative to DMSO; higher = less toxic; details: 24 h
Caco-2 [2] = assay: cell viability relative to DMSO; higher = less toxic; details: 72 h
Calu-3 [3] = assay: as above; details: 72 h
HepG2 [4] = assay: as above; details: 72 h
U2OS [5] = assay: as above; details: 72 h
Vero E6 [6] = assay: as above; details: 72 h
[7] = tested on: A549-ACE2 infected with SARS-CoV-2; assay: SARS-CoV-2 infection rate relative to DMSO; higher = more infection; details: 24 h
A549-ACE2 [8] = assay: phospholipidosis EC50; higher = less potent phospholipidosis inducer; details: 24 h
A549-ACE2 [9] = assay: drug-induced phospholipidosis relative to tamoxifen; higher = more phospholipidosis
[10] = tested on: A549-ACE2 infected with SARS-CoV-2; assay: morphology score (similarity to uninfected cells); higher = more like uninfected cells; details: 24 h
Caco-2 [11] = assay: relative viability EC50 (midpoint between 100% and the lowest measured viability); higher = less toxic; details: 72 h
Calu-3 [12] = assay: as above; details: 72 h
U2OS [13] = assay: as above; details: 72 h
Vero E6 [14] = assay: as above; details: 72 h
Caco-2 [15] = assay: drug sensitivity score (DSS) for viability; higher = more toxic; extreme values may be limits of the assay; details: 72 h
Calu-3 [16] = assay: as above; details: 72 h
HepG2 [17] = assay: as above; details: 72 h
U2OS [18] = assay: as above; details: 72 h
Vero E6 [19] = assay: as above; details: 72 h
HepG2 [20] = assay: relative viability EC50 (midpoint between 100% and the lowest measured viability); higher = less toxic; details: 72 h

COc1ccc(/C=C/C(=O)/C=C(O)/C=C/c2ccc(OC)c(OC)c2)cc1OC [ASC-J9]
Details | SARS-CoV-2 infection rate, [7] [%] | cell count, [1] [%] | cell viability, Caco-2 [2] [%] | cell viability, Calu-3 [3] [%] | cell viability, HepG2 [4] [%] | cell viability, U2OS [5] [%] | cell viability, Vero E6 [6] [%] | morphology score, [10]
1 nM | – | – | 90.7 | 96.5 | 118 | 96.1 | 99.2 | –
10 nM | – | – | 92.8 | 94.9 | 106 | 97.5 | 93.9 | –
100 nM | – | – | 92.9 | 110 | 111 | 95.3 | 103 | –
0.3 µM | 98 | 100 | – | – | – | – | – | 0.01
1000 nM | – | – | 100 | 108 | 95.4 | 98.1 | 101 | –
3 µM | 97 | 101 | – | – | – | – | – | -0.06
10 µM | 87 | 98 | – | – | – | – | – | 0.39
10000 nM | – | – | 45.2 | 81.9 | 55.8 | 26.5 | 103 | –
30 µM | 25 | 70 | – | – | – | – | – | 0.56

Details | drug sensitivity score | phospholipidosis EC50 [µM] | relative viability EC50 [µM]
A549-ACE2 [8] | – | 20 | –
Caco-2 [11] | – | – | 3.19
Caco-2 [15] | 2.9 | – | –
Calu-3 [12] | – | – | > 10
Calu-3 [16] | 0.3 | – | –
HepG2 [17] | 3 | – | –
U2OS [13] | – | – | 2.98
U2OS [18] | 4.3 | – | –
Vero E6 [14] | – | – | > 10
Vero E6 [19] | 0 | – | –

drug-induced phospholipidosis [%], A549-ACE2 [9]
Details | 0.3 µM | 0.833333 µM | 3.33333 µM | 6.66667 µM | 10 µM | 30 µM
24 h | 0.46 | -1.23 | 4.99 | 24.2 | 40.1 | 139
48 h | 1.84 | -1.1 | 1.58 | 8.23 | 13.3 | 45.5
72 h | 4.19 | -0.9 | 1.28 | 7.61 | 9.79 | 37.4

Cc1[nH]c2ccccc2c1CCNC(=O)c1cccs1 [CK-636]
Details | SARS-CoV-2 infection rate, [7] [%] | cell count, [1] [%] | cell viability, Caco-2 [2] [%] | cell viability, Calu-3 [3] [%] | cell viability, HepG2 [4] [%] | cell viability, U2OS [5] [%] | cell viability, Vero E6 [6] [%] | morphology score, [10]
1 nM | – | – | 98.9 | 100 | 99.8 | 94 | 104 | –
10 nM | – | – | 99.8 | 90.9 | 104 | 101 | 100 | –
100 nM | – | – | 91.4 | 91.8 | 102 | 94.9 | 103 | –
0.3 µM | 101 | 98 | – | – | – | – | – | -0.06
1000 nM | – | – | 99.6 | 99.7 | 99.8 | 100 | 97 | –
3 µM | 103 | 99 | – | – | – | – | – | -0.01
10 µM | 100 | 101 | – | – | – | – | – | 0.14
10000 nM | – | – | 84.1 | 93.2 | 104 | 93.2 | 99.3 | –
30 µM | 100 | 97 | – | – | – | – | – | 0.06

drug-induced phospholipidosis [%], A549-ACE2 [9]
Details | 0.3 µM | 0.833333 µM | 3.33333 µM | 6.66667 µM | 10 µM | 30 µM
24 h | 6.27 | 1.27 | 2.41 | 2.27 | 5.29 | 11.7
48 h | 3.87 | -1.04 | 2.68 | 4.83 | 2.67 | 12.2
72 h | 1.44 | -4.13 | 1.2 | 4.21 | 4.6 | 12.1

Details | drug sensitivity score | relative viability EC50 [µM]
Caco-2 [11] | – | > 10
Caco-2 [15] | 0.3 | –
Calu-3 [12] | – | > 10
Calu-3 [16] | 0 | –
HepG2 [17] | 0 | –
HepG2 [20] | – | > 10
U2OS [13] | – | > 10
U2OS [18] | 0 | –
Vero E6 [14] | – | > 10
Vero E6 [19] | 0 | –
